Experiments:
[1] = in vivo; details: rat, po, 50 mg/kg
Procedure: The graphs of FIGS. 1, 3, 5, and 6 show the docetaxel concentrations in plasma over time in rats, which were measured by collecting blood at 0 hr, 0.25 hr, 0.5 hr, 1 hr, 2 hr, 4 hr, 6 hr, 8 hr, and 12 hr.

[2] = In-vivo pharmacokinetic analysis (beagle), single oral administration; details: dog, plasma, beagles, Docetaxel PO 50 mg/kg
Text: The compositions of Example 83 and Comparative Example 1 were single orally administered to beagles to obtain plasma drug concentration information. The results are shown in Tables 12 and 13 below and FIGS. 8 and 9.

Compound: CC(=O)O[C@@]12CO[C@@H]1C[C@H](O)[C@@]1(C)C(=O)[C@H](O)C3=C(C)[C@@H](OC(=O)[C@H](O)[C@@H](NC(=O)OC(C)(C)C)c4ccccc4)C[C@@](O)([C@@H](OC(=O)c4ccccc4)[C@H]21)C3(C)C [Comparative Example 1, Docetaxel]
- AUC(0-t) [1]: 0.85 ng·h/mL
- Cmax [1]: 0.12 ng/mL
- Tmax [1]: 12 h
- AUC(0-t) [2]: 1.86 ng·h/mL
- Cmax [2]: 0.5 ng/mL
- Tmax [2]: 3.5 h
- concentration at 0.25 h ([2]; 0.25 h, mean n = 2): 0.239 ng/mL
- concentration at 0.5 h ([2]; 0.5 h, mean n = 2): 0.219 ng/mL
- concentration at 1 h ([2]; 1 h, mean n = 2): 0.243 ng/mL
- concentration at 2 h ([2]; 2 h, mean n = 2): 0.14 ng/mL
- concentration at 4 h ([2]; 4 h, mean n = 2): 0.621 ng/mL
- concentration at 6 h ([2]; 6 h, mean n = 2): 0.675 ng/mL
- concentration at 8 h ([2]; 8 h, mean n = 2): 0.222 ng/mL
